Measurements as given in patent publication US20070249670A1, “Glycogen Phosphorylase Inhibitor Compounds and Pharmaceutical Compositions Thereof” (SMITHKLINE BEECHAM CORPORATION, priority 2004, published 2007).

Biological target: T1, human liver glycogen phosphorylase a (HLGPa) (Homo sapiens, UniProt P06737)
T1 construct: creating a full-length cDNA fused at the 5′ end to codons for methionine-glycine-alanine-histidine; 6xHis tag (leader Met-Gly-Ala-His6-Gly-Gly) (N); made in house; host or cells: E. coli (bacterial expression plasmid pTXK1007LTev)
T1 sequence (P06737 2-847 limits assumed): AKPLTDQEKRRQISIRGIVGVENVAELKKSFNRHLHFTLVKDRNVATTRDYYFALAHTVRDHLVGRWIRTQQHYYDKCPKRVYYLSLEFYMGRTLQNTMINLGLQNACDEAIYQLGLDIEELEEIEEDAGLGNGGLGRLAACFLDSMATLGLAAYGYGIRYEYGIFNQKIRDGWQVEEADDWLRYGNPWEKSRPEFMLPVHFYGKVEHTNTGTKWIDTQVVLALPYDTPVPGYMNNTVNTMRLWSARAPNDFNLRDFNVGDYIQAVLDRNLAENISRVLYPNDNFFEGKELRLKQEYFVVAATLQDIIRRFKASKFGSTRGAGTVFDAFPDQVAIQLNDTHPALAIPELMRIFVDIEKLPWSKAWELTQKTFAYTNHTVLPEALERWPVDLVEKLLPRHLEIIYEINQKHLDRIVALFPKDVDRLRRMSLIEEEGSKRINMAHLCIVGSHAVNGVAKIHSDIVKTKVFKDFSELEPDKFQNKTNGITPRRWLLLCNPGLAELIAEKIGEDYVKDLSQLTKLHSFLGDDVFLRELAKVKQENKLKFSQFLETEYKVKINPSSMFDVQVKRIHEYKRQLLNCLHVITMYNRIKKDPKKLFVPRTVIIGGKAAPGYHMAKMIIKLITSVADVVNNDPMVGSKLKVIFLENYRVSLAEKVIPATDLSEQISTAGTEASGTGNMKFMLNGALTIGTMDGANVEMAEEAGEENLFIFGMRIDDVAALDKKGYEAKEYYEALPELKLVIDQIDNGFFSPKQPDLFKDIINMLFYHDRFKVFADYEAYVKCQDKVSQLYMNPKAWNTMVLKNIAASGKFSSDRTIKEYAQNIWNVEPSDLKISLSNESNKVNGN
Assay: Human liver glycogen phosphorylase a enzymatic activity assay (coupled, fluorescent resorufin readout, with and without 10 mM glucose)
Format: biochemical
Conditions: human liver glycogen phosphorylase a enzymatic activity assay

SMILES	IC50 [nM]
Cc1ccccc1CC(=O)Nc1cc2ccccc2cc1C(=O)N[C@H](C(=O)O)C1CCCCC1 [Example 7, (2S)-cyclohexyl{[(3-{[(2-methylphenyl)acetyl]amino}-2-naphthalenyl)carbonyl]amino}ethanoic acid]	17000
O=C(O)C[C@H](NC(=O)c1cc2ccccc2cc1NC(=O)Nc1ccccc1Cl)C(=O)O [Example 9, N-[3-({[(2-chlorophenyl)amino]carbonyl}amino)-2-naphthoyl]-L-aspartic acid]	2780
Cc1ccccc1NC(=O)Nc1cc2ccccc2cc1C(=O)NCC(=O)O [Example 10, N-[3-({[(2-methylphenyl)amino]carbonyl}amino)-2-naphthoyl]glycine]	6500
Cc1cccc(C)c1NC(=O)Nc1cc2ccccc2cc1C(=O)NCC(=O)O [Example 11, N-[3-({[(2,6-dimethylphenyl)amino]carbonyl}amino)-2-naphthoyl]glycine]	90
O=C(O)CNC(=O)c1cc2ccccc2cc1NC(=O)Nc1ccccc1Cl [Example 12, N-[3-({[(2-chlorophenyl)amino]carbonyl}amino)-2-naphthoyl]glycine]	2520
Cc1ccccc1NC(=O)Nc1cc2ccccc2cc1C(=O)N[C@@H](C)C(=O)O [Example 13, N-[3-({[(2-methylphenyl)amino]carbonyl}amino)-2-naphthoyl]-L-alanine]	15500
Cc1ccccc1NC(=O)Nc1cc2ccccc2cc1C(=O)N[C@H](C(=O)O)[C@@H](C)O [Example 14, N-[3-({[(2-methylphenyl)amino]carbonyl}amino)-2-naphthoyl]-L-threonine]	6410
CC[C@H](C)[C@H](NC(=O)c1cc2ccccc2cc1NC(=O)Nc1ccccc1C)C(=O)O [Example 15, N-[3-({[(2-methylphenyl)amino]carbonyl}amino)-2-naphthoyl]-L-isoleucine]	11000
Cc1ccccc1NC(=O)Nc1cc2ccccc2cc1C(=O)N[C@@H](CC(C)C)C(=O)O [Example 16, N-[3-({[(2-methylphenyl)amino]carbonyl}amino)-2-naphthoyl]-L-leucine]	5100
Cc1ccccc1NC(=O)Nc1cc2ccccc2cc1C(=O)N[C@@H](CC(N)=O)C(=O)O [Example 17, N-[3-({[(2-methylphenyl)amino]carbonyl}amino)-2-naphthoyl]-L-asparagine]	4720
Cc1cccc(C)c1NC(=O)Nc1cc2ccccc2cc1C(=O)N[C@@H](C)C(=O)O [Example 18, N-[3-({[(2,6-dimethylphenyl)amino]carbonyl}amino)-2-naphthoyl]-L-alanine]	1480
Cc1cccc(C)c1NC(=O)Nc1cc2ccccc2cc1C(=O)N[C@@H](CO)C(=O)O [Example 19, N-[3-({[(2,6-dimethylphenyl)amino]carbonyl}amino)-2-naphthoyl]-L-serine]	2000
Cc1cccc(C)c1NC(=O)Nc1cc2ccccc2cc1C(=O)N1CCC[C@H]1C(=O)O [Example 20, 1-[3-({[(2,6-dimethylphenyl)amino]carbonyl}amino)-2-naphthoyl]-L-proline]	2240
Cc1cccc(C)c1NC(=O)Nc1cc2ccccc2cc1C(=O)N[C@H](C(=O)O)C(C)C [Example 21, N-[3-({[(2,6-dimethylphenyl)amino]carbonyl}amino)-2-naphthoyl]-L-valine]	1960
Cc1cccc(C)c1NC(=O)Nc1cc2ccccc2cc1C(=O)N[C@H](C(=O)O)[C@@H](C)O [Example 22, N-[3-({[(2,6-dimethylphenyl)amino]carbonyl}amino)-2-naphthoyl]-L-threonine]	1080
CC[C@H](C)[C@H](NC(=O)c1cc2ccccc2cc1NC(=O)Nc1c(C)cccc1C)C(=O)O [Example 23, N-[3-({[(2,6-dimethylphenyl)amino]carbonyl}amino)-2-naphthoyl]-L-isoleucine]	890
Cc1cccc(C)c1NC(=O)Nc1cc2ccccc2cc1C(=O)N[C@@H](CC(C)C)C(=O)O [Example 24, N-[3-({[(2,6-dimethylphenyl)amino]carbonyl}amino)-2-naphthoyl]-L-leucine]	1190
Cc1cccc(C)c1NC(=O)Nc1cc2ccccc2cc1C(=O)N[C@@H](CC(N)=O)C(=O)O [Example 25, N-[3-({[(2,6-dimethylphenyl)amino]carbonyl}amino)-2-naphthoyl]-L-asparagine]	670

SMILES	IC50 [nM]
Cc1cccc(C)c1NC(=O)Nc1cc2ccccc2cc1C(=O)N[C@@H](CCC(N)=O)C(=O)O [Example 26, N-[3-({[(2,6-dimethylphenyl)amino]carbonyl}amino)-2-naphthoyl]-L-glutamine]	3010
C[C@H](NC(=O)c1cc2ccccc2cc1NC(=O)Nc1ccccc1Cl)C(=O)O [Example 27, N-[3-({[(2-chlorophenyl)amino]carbonyl}amino)-2-naphthoyl]-L-alanine]	13500
O=C(Nc1ccccc1Cl)Nc1cc2ccccc2cc1C(=O)N[C@@H](CO)C(=O)O [Example 28, N-[3-({[(2-chlorophenyl)amino]carbonyl}amino)-2-naphthoyl]-L-serine]	24100
C[C@@H](O)[C@H](NC(=O)c1cc2ccccc2cc1NC(=O)Nc1ccccc1Cl)C(=O)O [Example 29, N-[3-({[(2-chlorophenyl)amino]carbonyl}amino)-2-naphthoyl]-L-threonine]	7260
CC[C@H](C)[C@H](NC(=O)c1cc2ccccc2cc1NC(=O)Nc1ccccc1Cl)C(=O)O [Example 30, N-[3-({[(2-chlorophenyl)amino]carbonyl}amino)-2-naphthoyl]-L-isoleucine]	22100
NC(=O)C[C@H](NC(=O)c1cc2ccccc2cc1NC(=O)Nc1ccccc1Cl)C(=O)O [Example 31, N-[3-({[(2-chlorophenyl)amino]carbonyl}amino)-2-naphthoyl]-L-asparagine]	11400
NC(=O)CC[C@H](NC(=O)c1cc2ccccc2cc1NC(=O)Nc1ccccc1Cl)C(=O)O [Example 32, N-[3-({[(2-chlorophenyl)amino]carbonyl}amino)-2-naphthoyl]-L-glutamine]	41000
Cc1cccc(Cl)c1NC(=O)Nc1cc2ccccc2cc1C(=O)N[C@@H](C)C(=O)O [Example 33, N-[3-({[(2-chloro-6-methylphenyl)amino]carbonyl}amino)-2-naphthoyl]-L-alanine]	520
Cc1cccc(Cl)c1NC(=O)Nc1cc2ccccc2cc1C(=O)N[C@@H](CO)C(=O)O [Example 34, N-[3-({[(2-chloro-6-methylphenyl)amino]carbonyl}amino)-2-naphthoyl]-L-serine]	640
Cc1cccc(Cl)c1NC(=O)Nc1cc2ccccc2cc1C(=O)N1CCC[C@H]1C(=O)O [Example 35, 1-[3-({[(2-chloro-6-methylphenyl)amino]carbonyl}amino)-2-naphthoyl]-L-proline]	580
Cc1cccc(Cl)c1NC(=O)Nc1cc2ccccc2cc1C(=O)N[C@H](C(=O)O)C(C)C [Example 36, N-[3-({[(2-chloro-6-methylphenyl)amino]carbonyl}amino)-2-naphthoyl]-L-valine]	1710
Cc1cccc(Cl)c1NC(=O)Nc1cc2ccccc2cc1C(=O)N[C@H](C(=O)O)[C@@H](C)O [Example 37, N-[3-({[(2-chloro-6-methylphenyl)amino]carbonyl}amino)-2-naphthoyl]-L-threonine]	430
CC[C@H](C)[C@H](NC(=O)c1cc2ccccc2cc1NC(=O)Nc1c(C)cccc1Cl)C(=O)O [Example 38, N-[3-({[(2-chloro-6-methylphenyl)amino]carbonyl}amino)-2-naphthoyl]-L-isoleucine]	280
Cc1cccc(Cl)c1NC(=O)Nc1cc2ccccc2cc1C(=O)N[C@@H](CC(C)C)C(=O)O [Example 39, N-[3-({[(2-chloro-6-methylphenyl)amino]carbonyl}amino)-2-naphthoyl]-L-leucine]	600
Cc1cccc(Cl)c1NC(=O)Nc1cc2ccccc2cc1C(=O)N[C@@H](CC(N)=O)C(=O)O [Example 40, N-[3-({[(2-chloro-6-methylphenyl)amino]carbonyl}amino)-2-naphthoyl]-L-asparagine]	420
Cc1cccc(Cl)c1NC(=O)Nc1cc2ccccc2cc1C(=O)N[C@@H](CCC(N)=O)C(=O)O [Example 41, N-[3-({[(2-chloro-6-methylphenyl)amino]carbonyl}amino)-2-naphthoyl]-L-glutamine]	1320
Cc1ccccc1NC(=O)Nc1cc2ccccc2cc1C(=O)N[C@@H](CCC(=O)O)C(=O)O [Example 42, N-[3-({[(2-methylphenyl)amino]carbonyl}amino)-2-naphthoyl]-L-glutamic acid]	28300
CSCC[C@H](NC(=O)c1cc2ccccc2cc1NC(=O)Nc1ccccc1C)C(=O)O [Example 43, N-[3-({[(2-methylphenyl)amino]carbonyl}amino)-2-naphthoyl]-L-methionine]	18900
